{
  "source": "patent US5968920A",
  "about": "“Compounds having a benzisoselen-azoline and -azine structure, method for preparing same and therapeutic uses thereof” (Oxis Isle of Man, Limited, priority 1994, dated 1999)",
  "key": {"[1]": {"assay": "Glutathione peroxidase activity, t-BuOOH as hydroperoxide", "type": "biochemical", "conditions": "compound 20 μM, pH = 7.3, 37° C., [GSH] = 2 mM", "experimental": "(§1) To 1.5 ml of HEPES buffer, 50 mM, pH=7.3, containing 0.2 mM of DTPA, 0.144 mM of NADPH, 2.2 mM of reduced glutathione and 1.1 U/ml of glutathione disulfide reductase, pre-equilibrated for 2 minutes at 37° C., 100 μl of an ethanolic mother solution of the compound to be tested or 100 μl of absolute ethanol (blank) was added. Each compound was tested at a final concentration of 20 μM.\n(§2) Subsequently, 50 μl of the following was added:\ntertiobutyl hydroperoxide (t-BuOOH), 6.6 mM in ultrapure water;\n(§3) or the hydroperoxide of linoleic acid (18:2-OOH) prepared using soya lipoxygenase (see M. O. Funk et al., Lipids, (1976), 11, pp 113-117), 3.3 mM in a water/methanol mixture, 85/15 (V/V). The glutathione peroxidase activity was measured at 37° C. by measuring the reduction in absorbance at 340 nm over 5 minutes. The initial enzymatic rate or activity was proportional to the slope of the plot of absorbance against time.\n(§4) They are expressed in nmoles of hydroperoxide reduced per minute."}, "[2]": {"assay": "Glutathione peroxidase activity, hydrogen peroxide", "type": "biochemical", "conditions": "compound 20 μM, pH = 7.3, 37° C., [GSH] = 2 mM", "experimental": "as §1, §2\nor hydrogen peroxide (H2 O2), 1.6 mM in ultrapure water;\nas §3, §4"}, "[3]": {"assay": "Glutathione peroxidase activity, linoleic acid hydroperoxide", "type": "biochemical", "conditions": "compound 20 μM, pH = 7.3, 37° C., [GSH] = 2 mM", "experimental": "as §1, §2, §3, §4"}, "[4]": {"system": "von Willebrandt factor (vWf)", "assay": "Protection of endothelial cells against interleukin 1 (von Willebrandt factor release)", "type": "cell-based", "conditions": "Homo sapiens, Endothelial cell, 4 h, read-out: inhibition of increase in vWf liberation induced by IL-1", "experimental": "(§5) Human endothelial cells were cultivated under the same conditions as those described for Example 18.\nWhen the cells were near confluence, they were incubated for one hour in the presence or absence of the following compounds: BXT-51072, BXT-51077, each of these compounds being at 10 μM in culture medium containing 2% of foetal calf serum , all other conditions being the same. The cells were then washed three times with a PBS buffer. The cells which had not been pretreated by a compound were incubated in the presence or absence (control) of interleukin 1α (IL-1α), at 50 U/ml, in the same culture medium. […] After four hours of incubation, the von Willebrandt factor (vWf) in the culture medium was measured."}, "interleukin 8 (IL-8)": {"system": "interleukin 8 (IL-8)", "assay": "Endothelial production of interleukin 8 induced by TNF-α", "type": "cell-based, human", "conditions": "4 h", "experimental": "as §5\nWhen the cells were near confluence, they were incubated for one hour in the presence or absence of the following compounds: BXT-51072, BXT-51077 or ebselen. Each of these compounds was incorporated into culture medium containing 2% of foetal calf serum at 10 μM, all other conditions being the same. […] After four hours of incubation, the interleukin 8 (IL-8) in the culture medium was measured."}, "endothelial cells [5]": {"system": "endothelial cells", "assay": "Adhesion of PMN to endothelial cells induced by TNF-α (myeloperoxidase)", "type": "cell-based, human", "conditions": "compound 10 μM vs pentoxifylline 50 μM; TNF-α 1 ng/ml", "experimental": "as §5\n(§6) When the cells were near confluence, they were incubated for one hour in the presence or absence of the following compounds: BXT-51072, BXT-51077 or pentoxifylline. Compounds BXT-51072 and BXT-51077, each at 10 μM, and the pentoxifylline, at 50 μM, were incorporated in culture medium containing 2% of foetal calf serum, all other conditions being the same. […] Myeloperoxidase (MPO), an enzyme specifically contained in PMNs, was then measured in the cell lysates obtained to evaluate adhesion of the PMNs on the endothelial cells. The von Willebrandt factor (vWf) liberated in the culture medium by the endothelial cells was measured after three and a half hours of incubation, as a label of the changes in the cells.\n(§7) Incubation of the endothelial cells in the presence of PMN and TNF-α led to a very significant increase in the quantity of MPO and vWf with respect to the respective controls (PMN alone, and endothelial cells alone respectively), meaning the adhesion of activated PMNs to the endothelial cells and changes in the latter.\n(§8) They are expressed as the percentage inhibition by referring the MPO and vWf measurements to the respective concentrations of MPO and vWf determined when the endothelial cells were incubated with TNF-α and PMNs."}, "endothelial cells [6]": {"system": "endothelial cells", "assay": "Endothelial changes induced by PMN and TNF-α (von Willebrandt factor release)", "type": "cell-based, human", "conditions": "BXT compounds 10 μM, pentoxifylline 50 μM; TNF-α 1 ng/ml; 3.5 h", "experimental": "as §5, §6, §7, §8"}, "endothelial cells [7]": {"system": "endothelial cells", "assay": "Viability of endothelial cells subjected to linoleic acid hydroperoxide (MTT)", "type": "cell-based, human", "conditions": "compound 4 μM, 1 h; 18:2-OOH 50 μM, 2 h; MTT after about twenty hours", "experimental": "Human endothelial cells were cultivated at 37° C. in multi-hole plates or Petri dishes in an atmosphere of saturated humidity constituted by a gaseous mixture of 95% air and 5% of CO2. The culture medium was constituted by a M 199 medium, pH=7.4, containing 20% of foetal calf serum, 2 mM of L-glutamine, 100 U/ml of penicillin, 100 μg/ml of streptomycin and 1% by volume of a medium supplement containing heparin and a cell growth factor.\nWhen the cells were near confluence, they were incubated for one hour in the presence or absence of one of the following compounds: BXT-51056, BXT-51072, BXT-51077, or ebelsen. Each of these compounds was incorporated at 4 μM into culture medium containing 2% of foetal calf serum, all other conditions being the same.\nAfter washing the cells three successive times with a PBS buffer, they were incubated in the presence or absence (control) of linoleic acid hydroperoxide (18:2-OOH), 50 μM, in the culture medium defined above. […] After about twenty hours, the viability of the cells was determined by measurement using the bromide of 3-(4,5-dimethylthiazol-2-yl)-2,5-diphenyl-2H-tetrazolium (MTT).\nThe results are shown in FIG. 1, expressed as the survival percentage with respect to the control and where the reference is shown by the black rectangle."}, "[8]": {"conditions": "in the presence of excess glutathione GSH; cited from earlier work"}, "[9]": {"conditions": "prior art, Wendel 1984; Mercurio and Combs 1986; cited from earlier work"}, "endothelial cells [10]": {"system": "endothelial cells", "assay": "Absence of toxicity in a culture of endothelial cells in vitro (MTT)", "type": "cell-based, human", "conditions": "no more than 10 μM, 24 or 48 hours", "experimental": "Human endothelial cells were cultivated under the same conditions as those described for Example 18, in 96-hole plates.\nWhen the cells were near confluence, they were incubated or not (control) for 24 or 48 hours in the presence of BXT-51056 or BXT-51072 incorporated into the culture medium at a concentration of no more than 10 μM. After 24 or 48 hours, the cells were rinsed three times with a PBS buffer and the viability of the cells was measured using the bromide of 3-(4,5-dimethylthiazol-2-yl)-2,5-diphenyl-2H-tetrazolium (MTT)."}, "endothelial cells [11]": {"system": "endothelial cells", "assay": "Protection of endothelial cells against hydrogen peroxide (NO production after bradykinin)", "type": "cell-based", "conditions": "Homo sapiens, Endothelial cell; compound 1 μM; hydrogen peroxide 100 μM; bradykinin 100 nM; read-out: recovery of the normal response to bradykinin (NO production)", "experimental": "Human endothelial cells were cultivated at 37° C. in 6-hole plates or Petri dishes (35 mm diameter) in an atmosphere of saturated humidity constituted by a gaseous mixture of 95% air and 5% of CO2. The culture medium was constituted by a M 199 medium, pH=7.4, containing 20% of foetal calf serum, 2 mM of L-glutamine, 100 U/ml of penicillin and 100 μg/ml of streptomycin.\nWhen the cells were confluent, they were incubated in the presence or absence (control) of a compound with general structure I in culture medium at a concentration of between 1 and 10 μM, all other conditions being the same. After washing the cells three successive times with a PBS buffer, they were incubated in the presence or absence (control) of hydrogen peroxide, 500 or 100 μM, in the reaction medium. The cells were then washed three times with PBS buffer. They were then stained using the May-Grunwald/Giemsa procedure which caused the nucleus to stain purple and the cytoplasm, light violet, or they were used to measure their ability to produce nitric oxide NO. (EDRF). The production of NO. by endothelial cells was made using a NO. electrode, after stimulation with bradykinin, 100 nM, using the procedure described by H. Tsukahara et al., (Biochem. and Biophys. Res. Comm., (1993), 193, pp 722-729).\nTreatment with 100 μM hydrogen peroxide had no significant effect on cellular density. […]"}},
  "data": [
    {"smiles": "CCN1CC(C)(C)c2ccccc2[Se]1", "note": "[BXT-51078, 4,4-dimethyl-2-ethyl-benzisoselenazine]", "values": [
      {"measurement": "Glutathione peroxidase activity, t--BuOOH", "setting": "[1]", "result": "16.5 nmoles of hydroperoxide reduced/min"}
    ]},
    {"smiles": "CC1(C)N[Se]c2ccc([N+](=O)[O-])cc21", "note": "[BXT-51075, 3,3'-dimethyl-5-nitro-benzisoselenazoline]", "values": [
      {"measurement": "Glutathione peroxidase activity, t--BuOOH", "setting": "[1]", "result": "3,2 nmoles of hydroperoxide reduced/min"},
      {"measurement": "Glutathione peroxidase activity, H2 O2", "setting": "[2]", "result": "5,9 nmoles of hydroperoxide reduced/min"}
    ]},
    {"smiles": "CC1(C)N[Se](=O)c2ccccc21", "note": "(centres unmarked) [BXT-51059]", "values": [
      {"measurement": "Glutathione peroxidase activity, t--BuOOH", "setting": "[1]", "result": "0.2 nmoles of hydroperoxide reduced/min"},
      {"measurement": "Glutathione peroxidase activity, H2 O2", "setting": "[2]", "result": "0.1 nmoles of hydroperoxide reduced/min"},
      {"measurement": "Glutathione peroxidase activity, 18:2-OOH", "setting": "[3]", "result": "0.8 nmoles of hydroperoxide reduced/min"}
    ]},
    {"smiles": "COc1ccc2c(c1)C(C)(C)CN[Se]2", "note": "[BXT-51077, 4,4-dimethyl-6-methoxy-benzisoselenazine]", "values": [
      {"measurement": "inhibition at 10 µM", "setting": "[4]", "result": "> 70", "unit": "%"},
      {"measurement": "inhibition at 10 µM", "setting": "interleukin 8 (IL-8); Homo sapiens, read-out: inhibition of IL-8 production induced by TNF-α", "result": "≥ 70", "unit": "%"},
      {"measurement": "inhibition of the adhesion of PMN induced by TNF-α (MPO)", "setting": "endothelial cells [5]", "result": "inhibit the adhesion of PMN induced by TNF-α, much more effectively than pentoxifylline"},
      {"measurement": "Glutathione peroxidase activity, t--BuOOH", "setting": "[1]", "result": "35.4 nmoles of hydroperoxide reduced/min"},
      {"measurement": "protection of endothelial cells against the deleterious effects of activated PMNs (vWf)", "setting": "endothelial cells [6]", "result": "protect endothelial cells against the deleterious effects of activated PMNs"},
      {"measurement": "protection of the cells from death induced by 18:2-OOH", "setting": "endothelial cells [7]", "result": "significantly protected the cells from death"}
    ]},
    {"smiles": "O=c1c2ccccc2[se]n1-c1ccccc1", "note": "[ebselen, 2-phenyl-3-one-benzisoselenazoline(2H)]", "values": [
      {"measurement": "water solubility of the derivative produced with excess glutathione GSH", "setting": "[8]", "result": "only very slightly soluble in water"},
      {"measurement": "inhibition of IL-8 production induced by TNF-α (in words)", "setting": "interleukin 8 (IL-8); compound 10 μM, TNF-α 0.1, 1 or 10 ng/ml", "result": "no inhibiting effect"},
      {"measurement": "toxic effect", "setting": "[9]", "result": "do not appear to have a major toxic effect"}
    ]},
    {"smiles": "CC1(C)N[Se]c2ccccc21", "note": "[BXT-51056, 3,3-dimethyl-benzisoselenazoline]", "values": [
      {"measurement": "toxicity to endothelial cells", "setting": "endothelial cells [10]", "result": "not toxic to endothelial cells"},
      {"measurement": "activity at 1 µM", "setting": "endothelial cells [11]", "result": "> 80", "unit": "%"}
    ]}
  ]
}
